ChEMBL document CHEMBL5321279 (J Med Chem, 2023)
The source made the active and inactive calls. The calls are words filed in the database; no cut-off is given here.

Key:
[1] = Prodrug conversion in SARS-CoV-2 infected in African green monkey assessed as (2R,3R,4S,5R)-2-(4-aminopyrrolo[2,1-f][1,2,4]triazin-7-yl)-3,4-dihydroxy-5-(hydroxymethyl)tetrahydrofuran-2-carbonitrile mediated log10 reduction of genomic RNA at 10 mg/kg, iv qd administered for day 1 followed by 5 mg/kg administration measured after 6 days by RT-qPCR analysis; format: ADME, organism-based, Severe acute respiratory syndrome coronavirus 2; settings: in vivo, time 6 day
[2] = Cmax in African green monkey infected with SARS-CoV-2 assessed as prodrug conversion by measuring (2R,3R,4S,5R)-2-(4-aminopyrrolo[2,1-f][1,2,4]triazin-7-yl)-3,4-dihydroxy-5-(hydroxymethyl)tetrahydrofuran-2-carbonitrile at 10 mg/kg, iv qd administered for day 1 followed by 5 mg/kg administration measured after 6 days by LC-MS/MS analysis; format: ADME, organism-based, Severe acute respiratory syndrome coronavirus 2; design: dose 10 mg/kg, time 6 day, route iv; settings: in vivo
[3] = (§1) Cytotoxicity against stimulated human PBMC cells assessed as reduction in cell growth measured after 5 days by CellTiter-Glo assay; format: toxicity, cell-based; settings: stimulated PBMC, time 5 day
[4] = AUC(0 to 24 hrs) in African green monkey at 5 mg/kg, po measured upto 24 hrs by LC-MS/MS analysis; format: ADME, organism-based; design: time < 24 hrs, dose 5 mg/kg, route po; settings: chlorocebus sabaeus, in vivo
[5] = AUC(0 to 24 hrs) in African green monkey infected with SARS-CoV-2 assessed as prodrug conversion by measuring (2R,3R,4S,5R)-2-(4-aminopyrrolo[2,1-f][1,2,4]triazin-7-yl)-3,4-dihydroxy-5-(hydroxymethyl)tetrahydrofuran-2-carbonitrile at 7.5 mg/kg, iv qd measured after 6 days by LC-MS/MS analysis; format: ADME, organism-based, Severe acute respiratory syndrome coronavirus 2; design: dose 7.5 mg/kg, time 6 day, route iv; settings: in vivo
[6] = AUC(0 to 24 hrs) in rat at 5 mg/kg, po measured upto 24 hrs by LC-MS/MS analysis; format: ADME, organism-based; design: dose 5 mg/kg, time < 24 hrs, route po; settings: in vivo
[7] = AUC(0 to 24 hrs) in African green monkey assessed as prodrug conversion by measuring (2R,3R,4S,5R)-2-(4-aminopyrrolo[2,1-f][1,2,4]triazin-7-yl)-3,4-dihydroxy-5-(hydroxymethyl)tetrahydrofuran-2-carbonitrile at 86.5 mg/kg, po measured upto 24 hrs by LC-MS/MS analysis; format: ADME, organism-based; design: dose 86.5 mg/kg, time < 24 hrs, route po; settings: chlorocebus sabaeus, in vivo
[8] = Half life in rat assessed as prodrug conversion by measuring (2R,3R,4S,5R)-2-(4-aminopyrrolo[2,1-f][1,2,4]triazin-7-yl)-3,4-dihydroxy-5-(hydroxymethyl)tetrahydrofuran-2-carbonitrile at 6 mg/kg, po measured upto 24 hrs by LC-MS/MS analysis; format: ADME, organism-based; settings: in vivo
[9] = Oral bioavailability in rat assessed as prodrug conversion by measuring (2R,3R,4S,5R)-2-(4-aminopyrrolo[2,1-f][1,2,4]triazin-7-yl)-3,4-dihydroxy-5-(hydroxymethyl)tetrahydrofuran-2-carbonitrile at 6 mg/kg measured upto 24 hrs by LC-MS/MS analysis; format: ADME, organism-based; settings: in vivo
SARS-CoV-2 [10] = assay: Antiviral activity against SARS-CoV-2 infected in African green monkey assessed as reduction in viral titer in throat swabs at 60 to 120 mg/kg, po qd administered for 6 days starting from 8 hrs post infection by PFA assay; format: functional, organism-based; settings: Severe acute respiratory syndrome coronavirus 2, dose lower 60.0 mg/kg, dose upper […], time 6.0 day
SARS-CoV-2 [11] = assay: Antiviral activity against SARS-CoV-2 infected in African green monkey assessed as reduction in genomic RNA load in BALF at 60 to 120 mg/kg, po qd administered for 6 days starting from 8 hrs post infection by RT-qPCR analysis; format: functional, organism-based; settings: Severe acute respiratory syndrome coronavirus 2, dose lower 60.0 mg/kg, dose upper […], time 6.0 day
[12] = AUC(0 to 24 hrs) in rat assessed as prodrug conversion by measuring (2R,3R,4S,5R)-2-(4-aminopyrrolo[2,1-f][1,2,4]triazin-7-yl)-3,4-dihydroxy-5-(hydroxymethyl)tetrahydrofuran-2-carbonitrile at 6 mg/kg, po measured upto 24 hrs by LC-MS/MS analysis; format: ADME, organism-based; design: time < 24 hrs, dose 6 mg/kg, route po; settings: in vivo
SARS-CoV-2 [13] = assay: Antiviral activity against SARS-CoV-2 infected in African green monkey assessed as reduction in viral genomic RNA load in nasal swabs at 60 to 120 mg/kg, po qd administered for 4 days starting from 8 hrs post infection by RT-qPCR analysis; format: functional, organism-based; settings: Severe acute respiratory syndrome coronavirus 2, dose lower 60.0 mg/kg, dose upper […], time 4.0 day
SARS-CoV-2 [14] = assay: Antiviral activity against SARS-CoV-2 infected in African green monkey assessed as reduction in viral titer in terminal respiratory tissue at 60 to 120 mg/kg, po qd administered for 6 days starting from 8 hrs post infection by PFA assay; format: functional, organism-based; settings: Severe acute respiratory syndrome coronavirus 2, dose lower 60.0 mg/kg, dose upper […], time 6.0 day
[15] = Stability of compound in rat plasma assessed as half life measured upto 4 hrs by LC-MS/MS analysis; format: ADME, cell-free
CES1c = assay: Stability of compound assessed as human recombinant CES1c-mediated compound hydrolysis by measuring half life at pH 7.4 using oseltamivir as substrate measured upto 120 mins by LC-MS/MS analysis; format: ADME; settings: pH 7.4, probe oseltamivir
SARS-CoV-2 [16] = assay: Antiviral activity against SARS-CoV-2 infected in African green monkey assessed as reduction in genomic RNA load in BALF at 60 mg/kg, po qd administered for 1 day starting from 8 hrs post infection by RT-qPCR analysis; format: functional, organism-based; settings: Severe acute respiratory syndrome coronavirus 2
[17] = AUC(0 to 24 hrs) in African green monkey at […], po measured upto 24 hrs by LC-MS/MS analysis; format: ADME, organism-based; settings: chlorocebus sabaeus, in vivo
SARS-CoV-2 [18] = assay: Antiviral activity against SARS-CoV-2 infected in African green monkey assessed as reduction in viral genomic RNA load in throat swabs at 60 to 120 mg/kg, po qd administered for 6 days starting from 8 hrs post infection by RT-qPCR analysis; format: functional, organism-based; settings: Severe acute respiratory syndrome coronavirus 2, dose lower 60.0 mg/kg, dose upper […], time 6.0 day
[19] = Stability of compound in dog plasma assessed as half life measured upto 4 hrs by LC-MS/MS analysis; format: ADME, cell-free, Canis lupus familiaris
[20] = AUC(0 to 24 hrs) in African green monkey at 60 mg/kg, po measured upto 24 hrs by LC-MS/MS analysis; format: ADME, organism-based; design: dose 60 mg/kg, time < 24 hrs, route po; settings: chlorocebus sabaeus, in vivo
[21] = Stability of compound in human liver S9 fraction assessed as half life at pH 7.4 measured upto 90 mins by LC-MS/MS analysis; format: ADME, subcellular
[22] = Aqueous stability of the compound assessed as compound remaining at pH 7 measured at 24 hrs by UPLC analysis; format: physicochemical; settings: aqueous solution, read-out: Stability
[23] = Half life in African green monkey assessed as prodrug conversion by measuring (2R,3R,4S,5R)-2-(4-aminopyrrolo[2,1-f][1,2,4]triazin-7-yl)-3,4-dihydroxy-5-(hydroxymethyl)tetrahydrofuran-2-carbonitrile at […], po measured upto 24 hrs by LC-MS/MS analysis; format: ADME, organism-based; settings: chlorocebus sabaeus, in vivo
[24] = Cmax in African green monkey assessed as prodrug conversion by measuring (2R,3R,4S,5R)-2-(4-aminopyrrolo[2,1-f][1,2,4]triazin-7-yl)-3,4-dihydroxy-5-(hydroxymethyl)tetrahydrofuran-2-carbonitrile at 60 mg/kg, po measured upto 24 hrs by LC-MS/MS analysis; format: ADME, organism-based; design: dose 60 mg/kg, time < 24 hrs, route po; settings: chlorocebus sabaeus, in vivo
SARS-CoV-2 [25] = assay: Antiviral activity against SARS-CoV-2 infected in African green monkey assessed as reduction in viral genomic RNA load in terminal respiratory tissue at 60 to 120 mg/kg, po qd administered for 6 days starting from 8 hrs post infection by RT-qPCR analysis; format: functional, organism-based; settings: Severe acute respiratory syndrome coronavirus 2, dose lower 60.0 mg/kg, dose upper […], time 6.0 day
PBMC = assay: as §1; format: toxicity, cell-based; settings: pbmc, 120 h, time 5 day
SARS-CoV-2 [26] = assay: Antiviral activity against SARS-CoV-2 infected in African green monkey assessed as reduction in viral genomic RNA load in throat swabs at 120 mg/kg, po qd administered for 4 days starting from 8 hrs post infection by RT-qPCR analysis; format: functional, organism-based; settings: Severe acute respiratory syndrome coronavirus 2, time 4.0 day
[27] = Stability of compound in rat liver S9 fraction assessed as half life at pH 7.4 measured upto 90 mins by LC-MS/MS analysis; format: ADME, subcellular

For `CCC(CC)COC(=O)[C@H](C)N[P@](=O)(OC[C@H]1O[C@@](C#N)(c2ccc3c(N)ncnn23)[C@H](O)[C@@H]1O)Oc1ccccc1`, the “log(activity)” value [1] was -1.38, the Cmax [2] was 1.23 µM and the CC50 at 120 h [3] was 14.8 µM.
In the case of `N#C[C@@]1(c2ccc3c(N)ncnn23)O[C@H](CO)[C@@H](O)[C@H]1O` [GS-441524], the AUC [4] is reported as 3.15 µM·h, the AUC [5] is reported as ~ 55 uM.hr and the AUC [6] is reported as 3.97 µM·h.
`CC(C)C(=O)OC[C@H]1O[C@@](C#N)(c2ccc3c(N)ncnn23)[C@H](O)[C@@H]1O` [OBELDESIVIR] showed an AUC [7] of 136 µM·h, a t1/2 [8] of 121 min and an F [9] of 63%. For the same molecule, the Activity (SARS-CoV-2 [10]) was “Active”, the Activity (SARS-CoV-2 [11]) was “Active” and the AUC [12] was 7.57 µM·h. The Activity (SARS-CoV-2 [13]) was “Active”, the Activity (SARS-CoV-2 [14]) was “Active” and the half-life [15] was less than 3 min. For the same molecule, the half-life (CES1c) was 4.3 min, the Activity (SARS-CoV-2 [16]) was “inactive” and the AUC [17] was 0.02 µM·h. For the same molecule, the Activity (SARS-CoV-2 [18]) was “Active”, the half-life [19] was 412 min and the AUC [20] was 0.03 µM·h. For the same molecule, the half-life at […] [21] was less than 2 min, the remaining at 24 h [22] was no less than 96% and the t1/2 [23] was 191 min. The Cmax [24] was 22.5 µM, the Activity (SARS-CoV-2 [25]) was “Active” and the CC50 (PBMC) was greater than 100 µM. For the same molecule, the Activity (SARS-CoV-2 [26]) was “Active” and the half-life at […] [27] was less than 2 min.
